Earlier results, collected in patent publication US20150209375A1, “POSOLOGY AND ADMINISTRATION OF GLUCOCORTICOID BASED COMPOSITIONS” (DuoCort Pharma AB, priority 2010, published 2015).

Settings: Lennernäs et al 2008

## C[C@]12CCC(=O)C=C1CC[C@@H]1[C@@H]2[C@@H](O)C[C@@]2(C)[C@H]1CC[C@]2(O)C(=O)CO [Hydrocortisone]
Amidon et al 1995
  BCS class: BCS class II
  extraction: low extraction drug
